Reference: patent US20100063074A1, “Cancer Treatment Method” (priority 2004, published 2010)
Like-named read-outs stand apart in the source and are kept apart here.

Assays:
[1] = test system: pancreatic cancer with distant metastases; conditions: pancreatic tumors with distant metastases; cited from earlier work
EGFR and erbB2 kinases = conditions: Rusnak et al., 2001b; Xia et al., 2002; cited from earlier work
Lovo = test: Cell growth inhibition IC50, Lovo; type: cell-based; conditions: Homo sapiens, Colorectal carcinoma
Procedure: (§1) The human bladder cell lines, HT-1197, HT-1376 and T24, and the ovarian cell line, SKOV3, were obtained from the American Type Culture Collection. The cells were maintained in tissue culture flasks in RPMI 1640 (Invitrogen # 22400-089) with 10% fetal bovine serum (FBS, HyClone # SH30071.03) and were incubated at 37° Celsius in an atmosphere of 5% CO2, until plating for IC50 determination. For IC50 determination, cells were plated in the appropriate medium at 5,000 cells per well in a 96-well tissue culture dish and returned to the incubator overnight. […] Final concentrations ranged from 30 micromolar to 0.00152 micromolar. After three days of compound exposure, the growth medium was removed by aspiration. Cell biomass was estimated by staining cells in 0.1 ml per well of methylene blue (Sigma #M9140, 0.5% in 50:50, ethanol:water), followed by incubation at room temperature for at least 30 minutes. Stain was aspirated and the plates rinsed by immersion in deionized water, followed by air drying. Stain was released from cells by the addition of 0.1 ml of solubilization solution (1.0% N-lauryl sarcosine, Sodium salt, Sigma #L5121 in PBS). Plates were incubated at room temperature for 40 minutes. Absorbance was read at 620 nm in a Tecan Spectra micro-plate reader. Percent inhibition of cell growth was calculated relative to untreated control wells. […]

LS174T = test: Cell growth inhibition IC50, LS174T; type: cell-based; conditions: Homo sapiens, Colon adenocarcinoma
Procedure: (§2) The cells were maintained in tissue culture flasks in RPMI 1640 (Invitrogen # 22400-089) with 10% fetal bovine serum (FBS, HyClone # SH30071.03) and were incubated at 37° Celsius in an atmosphere of 5% CO2, until plating for IC50 determination. For IC50 determination, cells were plated in the appropriate medium at 5,000 cells per well in a 96-well tissue culture dish and returned to the incubator overnight. […] Final concentrations ranged from 30 micromolar to 0.00152 micromolar. After three days of compound exposure, the growth medium was removed by aspiration. Cell biomass was estimated by staining cells in 0.1 ml per well of methylene blue (Sigma #M9140, 0.5% in 50:50, ethanol:water), followed by incubation at room temperature for at least 30 minutes. Stain was aspirated and the plates rinsed by immersion in deionized water, followed by air drying. Stain was released from cells by the addition of 0.1 ml of solubilization solution (1.0% N-lauryl sarcosine, Sodium salt, Sigma #L5121 in PBS). Plates were incubated at room temperature for 40 minutes. Absorbance was read at 620 nm in a Tecan Spectra micro-plate reader. Percent inhibition of cell growth was calculated relative to untreated control wells. IC50 values were interpolated using the method of Levenberg and Marquardt (Mager, 1972) and the equation: y=Vmax*[1−(x^n/(K^n+x^n))], where “K” is equal to IC50. […]

RKO = test: Cell growth inhibition IC50, RKO; type: cell-based; conditions: Homo sapiens, Colorectal carcinoma
Procedure: as §2

H157 = test: Cell growth inhibition IC50, H157; type: cell-based; conditions: Homo sapiens, NCI-H157, Lung carcinoma
Procedure: as §2

NCI-H727 = test: Cell growth inhibition IC50, NCI-H727; type: cell-based; conditions: Homo sapiens, Lung carcinoid bronchus
Procedure: as §2

A427 = test: Cell growth inhibition IC50, A427; type: cell-based; conditions: Homo sapiens, A-427, Lung Carcinoma
Procedure: as §1

NCI-H460 = test: Cell growth inhibition IC50, NCI-H460; type: cell-based; conditions: Homo sapiens, Lung Carcinoma
Procedure: as §1

NCI-H322 = test: Cell growth inhibition IC50, NCI-H322; type: cell-based; conditions: NSCLC
Procedure: as §2

SKMEL28 = test: Cell growth inhibition IC50, SKMEL28; type: cell-based; conditions: Homo sapiens, SK-MEL-28, Melanoma
Procedure: as §2

[2] = test system: locally advanced or metastatic transitional cell carcinoma of the urothelial tract
Procedure: Safety and efficacy assessments (independent review) were carried out at 4 and 8-week intervals respectively. Patients were also assessed at withdrawal, and followed every 2 months until death.

[3] = test system: locally advanced or metastatic TCC of the bladder
solid tumors = conditions: for time remained on lapatinib, SD patient: progressing on previous therapy
HFF = test: Cell growth inhibition IC50, HFF; conditions: Homo sapiens, read-out: Growth Inhibition (IC50 μM)
Procedure: as §1

PC3 = test: Cell growth inhibition IC50, PC3; conditions: Homo sapiens, PC-3, read-out: Growth Inhibition (IC50 μM)
Procedure: as §1

HT29 = test: Cell growth inhibition IC50, HT29; conditions: Homo sapiens, HT-29, read-out: Growth Inhibition (IC50 μM)
A549 = test: Cell growth inhibition IC50, A549; conditions: Homo sapiens, A549, read-out: Growth Inhibition (IC50 μM)
Procedure: as §1

HMEC = test: Cell growth inhibition IC50, HMEC; conditions: Homo sapiens, read-out: Growth Inhibition (IC50 μM)
Procedure: as §2

786O = test: Cell growth inhibition IC50, 786O; conditions: Homo sapiens, 786-0, read-out: Growth Inhibition (IC50 μM)
Procedure: as §1

A431 = test: Cell growth inhibition IC50, A431; conditions: Homo sapiens, A-431, read-out: Growth Inhibition (IC50 μM)
Procedure: as §1

SW480 = test: Cell growth inhibition IC50, SW480; conditions: Homo sapiens, SW480, read-out: Growth Inhibition (IC50 μM)
Procedure: as §1

DLD-1 = test: Cell growth inhibition IC50, DLD-1; conditions: Homo sapiens, DLD-1, read-out: Growth Inhibition (IC50 μM)
Procedure: as §2

SW620 = test: Cell growth inhibition IC50, SW620; conditions: Homo sapiens, SW-620, read-out: Growth Inhibition (IC50 μM)
SW837 = test: Cell growth inhibition IC50, SW837; conditions: Homo sapiens, SW837, read-out: Growth Inhibition (IC50 μM)
BxPC3 = test: Cell growth inhibition IC50, BxPC3; conditions: Homo sapiens, BXPC-3, read-out: Growth Inhibition (IC50 μM)
Procedure: as §2

CaLu3 = test: Cell growth inhibition IC50, CaLu3; conditions: Homo sapiens, Calu-3, read-out: Growth Inhibition (IC50 μM)
Procedure: as §1

Calu1 = test: Cell growth inhibition IC50, Calu1; conditions: Homo sapiens, Calu-1, read-out: Growth Inhibition (IC50 μM)
Procedure: as §2

LNCaP = test: Cell growth inhibition IC50, LNCaP; conditions: Homo sapiens, read-out: Growth Inhibition (IC50 μM)
Procedure: as §1

[4] = test system: H16 N2 (Transfected erbB2); test: Cell growth inhibition IC50, H16 N2; conditions: read-out: Growth Inhibition (IC50 μM)
Procedure: as §1

HCT 116 = test: Cell growth inhibition IC50, HCT 116; conditions: Homo sapiens, HCT-116, read-out: Growth Inhibition (IC50 μM)
Procedure: as §2

NCI-H747 = test: Cell growth inhibition IC50, NCI-H747; conditions: Homo sapiens, NCI-H747, read-out: Growth Inhibition (IC50 μM)
Procedure: as §2

Colo 205 = test: Cell growth inhibition IC50, Colo 205; conditions: Homo sapiens, COLO 205, read-out: Growth Inhibition (IC50 μM)
NCI-H358 = test: Cell growth inhibition IC50, NCI-H358; conditions: Homo sapiens, NCI-H358, read-out: Growth Inhibition (IC50 μM)
Procedure: as §2

NCI-H2009 = test: Cell growth inhibition IC50, NCI-H2009; conditions: Homo sapiens, NCI-H2009, read-out: Growth Inhibition (IC50 μM)
Procedure: as §2

T24 = test: Cell growth inhibition IC50 (methylene blue), T24; conditions: Homo sapiens, T-24, 72 h, read-out: Growth Inhibition (IC50 μM)
Procedure: as §1

H1197 = test: Cell growth inhibition IC50 (methylene blue), H1197; conditions: Homo sapiens, 72 h, read-out: Growth Inhibition (IC50 μM)
Procedure: The cells were maintained in tissue culture flasks in RPMI 1640 (Invitrogen # 22400-089) with 10% fetal bovine serum (FBS, HyClone # SH30071.03) and were incubated at 37° Celsius in an atmosphere of 5% CO2, until plating for IC50 determination. For IC50 determination, cells were plated in the appropriate medium at 5,000 cells per well in a 96-well tissue culture dish and returned to the incubator overnight. […] Final concentrations ranged from 30 micromolar to 0.00152 micromolar. After three days of compound exposure, the growth medium was removed by aspiration. Cell biomass was estimated by staining cells in 0.1 ml per well of methylene blue (Sigma #M9140, 0.5% in 50:50, ethanol:water), followed by incubation at room temperature for at least 30 minutes. Stain was aspirated and the plates rinsed by immersion in deionized water, followed by air drying. Stain was released from cells by the addition of 0.1 ml of solubilization solution (1.0% N-lauryl sarcosine, Sodium salt, Sigma #L5121 in PBS). Plates were incubated at room temperature for 40 minutes. Absorbance was read at 620 nm in a Tecan Spectra micro-plate reader. Percent inhibition of cell growth was calculated relative to untreated control wells. IC50 values were interpolated using the method of Levenberg and Marquardt (Mager, 1972) and the equation: y=Vmax*[1−(x^n/(K^n+x^n))], where “K” is equal to IC50.

H1376 = test: Cell growth inhibition IC50 (methylene blue), H1376; conditions: Homo sapiens, 72 h, read-out: Growth Inhibition (IC50 μM)
Procedure: as §1

SKOV3 = test: Cell growth inhibition IC50 (methylene blue), SKOV3; conditions: Homo sapiens, SK-OV-3, 72 h, read-out: Growth Inhibition (IC50 μM)
Procedure: as §1

[5] = 1250 mg once daily, interim analysis of 30 patients
[6] = 1250 mg daily oral, 59 patients, investigator reported
[7] = Head and Neck, 9 patients, only patients receiving lapatinib more than 4 months
[8] = QD administration, heavily pre-treated population

## O=c1[nH]cc(F)c(=O)[nH]1 [FU, fluorouracil]
[1]
  clinical benefit response (cancer-related symptoms): 4.8%
  overall survival: 4.4 months

## CS(=O)(=O)CCNCc1ccc(-c2ccc3ncnc(Nc4ccc(OCc5cccc(F)c5)c(Cl)c4)c3c2)o1 [GW572016, N-{3-chloro-4-[(3-fluorobenzyl)oxy]phenyl}-6-[5-({[2-(methanesulphonyl)ethyl]amino}methyl)-2-furyl]-4-quinazolinamine]
EGFR and erbB2 kinases
  kinase inhibition in human xenograft studies: dose-dependent kinase inhibition

## CS(=O)(=O)CCNCc1ccc(-c2ccc3ncnc(Nc4ccc(OCc5cccc(F)c5)c(Cl)c4)c3c2)o1.Cc1ccc(S(=O)(=O)O)cc1 [GW572016F, N-{3-Chloro-4-[(3-fluorobenzyl)oxy]phenyl}-6-[5-({[2-(methanesulphonyl)ethyl]amino}methyl)-2-furyl]-4-quinazolinamine ditosylate monohydrate]
Lovo
  IC50: 3.39 µM
LS174T
  IC50: 1.51 µM
RKO
  IC50: 5.48 µM
H157
  IC50: 5.98 µM
NCI-H727
  IC50: 7.59 µM
A427
  IC50: 5.95 µM
NCI-H460
  IC50: 9 µM
NCI-H322
  IC50: 0.92 µM
SKMEL28
  IC50: 5.9 µM
[2]; [5]
  Clinical benefit (≧6 months SD): 10%
  PR confirmed at 8 weeks (number): one
  patients with progressive disease: 17%
  patients with tumour reduction qualified as partial responses (PR) at the initial assessment: 10%
[2]; second-line oral treatment
  activity (in words): promising activity
[3]; 1250 mg daily
  patients with asymptomatic, Grade 2 decrease in cardiac ejection fraction: One
  tolerability (in words): well-tolerated
[3]; 1250 mg daily oral, 59 patients, RECIST
  PR, independent radiologic review: 2%
[3]; [6]
  partial responses (PR), investigators: 3%
  stable disease (SD), investigators: 20%
[3]; 1250 mg daily, Grade 3/4
  Grade 3/4 AEs: diarrhea: 3%
  Grade 3/4 AEs: vomiting: 7%
[3]; 1250 mg daily, all grades
  Adverse events: asthenia: 12%
  Adverse events: diarrhea: 39%
  Adverse events: fatigue: 10%
  Adverse events: nausea: 27%
  Adverse events: rash: 32%
  Adverse events: vomiting: 22%
[3]; 95% CI 8.00, 11.29
  median TTP: 8.6 weeks
[3]; 95% CI 13.14, 30.29
  median overall survival: 17.9 weeks
[3]; assessed by independent review
  clinical benefit (CR+PR+SD≧16 weeks), independent review: 12%
[3]; assessed by investigator
  clinical benefit (CR+PR+SD≧16 weeks), investigator: 14%
[3]; at week 8
  patients with cytoreduction: 10 patients
  patients with cytostasis: 4 patients
  patients with tumor growth up to 20%: 10 patients
[3]; independent review
  patients with durable SD lasting 6 months: three
[3]; investigator review
  patients with durable SD lasting 4 months: six
[3]; one patient
  time on study of one patient who remains on study: > 56 weeks
[3]; relapsed, advanced or metastatic TCC of the bladder
  activity (in words): exhibits monotherapy activity
Solid tumors; 22 SD pts
  median duration of SD: 4 mos
Solid tumors; 81 patients treated
  interstitial pneumonitis: no cases
Solid tumors; AUP metastatic to lung
  time remained on lapatinib, SD patient: ≥ 8 mos
Solid tumors; AUP, 6 patients, only patients receiving lapatinib more than 4 months
  Clinical Response, SD (patients): SD = 1
Solid tumors; Breast, 6 patients, only patients receiving lapatinib more than 4 months
  Clinical Response, SD (patients): SD = 2
Solid tumors; Cervical, 2 patients, only patients receiving lapatinib more than 4 months
  Clinical Response, SD (patients): SD = 1
Solid tumors; Colorectal, 27 patients, only patients receiving lapatinib more than 4 months
  Clinical Response, SD (patients): SD = 3
Solid tumors; [7]
  Clinical Response, CR (patients): 1
  Clinical Response, SD (patients): 3
Solid tumors; Mesothelioma, 3 patients, only patients receiving lapatinib more than 4 months
  Clinical Response, SD (patients): SD = 1
Solid tumors; NSCLC, 7 patients, only patients receiving lapatinib more than 4 months
  Clinical Response, SD (patients): SD = 3
Solid tumors; [8]
  clinical activity (in words): evidence of clinical activity
  tolerability (in words): well tolerated
Solid tumors; Renal, 6 patients, only patients receiving lapatinib more than 4 months
  Clinical Response, SD (patients): SD = 2
Solid tumors; erbB1 overexpressing head and neck squamous cell carcinoma
  duration of CR: ≥ 16 mos
Solid tumors; erbB1 overexpressing head and neck squamous cell carcinoma, 81 patients treated
  CR (number of patients): One
Solid tumors; non-small cell lung cancer
  time remained on lapatinib, SD patient: ≥ 12 mos
Solid tumors; various tumors most overexpressing either erbB1 or erbB2, 81 patients treated
  patients who experienced SD: Twenty-two
HFF
  IC50: 6.45 µM
PC3
  IC50: 7.15 µM
HT29
  IC50: 5.24 µM
A549
  IC50: 4.98 µM
HMEC
  IC50: 1.34 µM
786O
  IC50: 1.82 µM
A431
  IC50: 0.23 µM
SW480
  IC50: 6.86 µM
DLD-1
  IC50: 3.63 µM
SW620
  IC50: 6.75 µM
SW837
  IC50: 4.7 µM
BxPC3
  IC50: 1.41 µM
CaLu3
  IC50: 0.057 µM
Calu1
  IC50: 5.51 µM
LNCaP
  IC50: 4.69 µM
[4]
  IC50: 0.03 µM
HCT 116
  IC50: 5.87 µM
NCI-H747
  IC50: 1.49 µM
Colo 205
  IC50: 7.7 µM
NCI-H358
  IC50: 0.27 µM
NCI-H2009
  IC50: 11.5 µM
T24
  IC50: 8.22 µM
H1197
  IC50: 7.78 µM
H1376
  IC50: 3.34 µM
SKOV3
  IC50: 1.25 µM

## Nc1ccn([C@@H]2O[C@H](CO)[C@@H](O)C2(F)F)c(=O)n1 [gemcitabine]
[1]
  clinical benefit response (cancer-related symptoms): 23.8%
  overall survival: 5.6 months
